# Assays:
# Experiment in all cases: relative viability (nuclei count vs DMSO), 5 days (fraction); higher = more cells survive
# Doramapimod + Tozasertib = compound: Cc1ccc(-n2nc(C(C)(C)C)cc2NC(=O)Nc2ccc(OCCN3CCOCC3)c3ccccc23)cc1 [Doramapimod] + Cc1cc(Nc2cc(N3CCN(C)CC3)nc(Sc3ccc(NC(=O)C4CC4)cc3)n2)n[nH]1 [Tozasertib] (partner 0.1 µM)
# Summary of the method: (§1)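 Dosing by pin tool came one day after lung cancer cell lines were seeded in 1536-well plates, using either one drug or a fixed anchor-drug dose plus five library-drug doses (not always all listed) in √10 steps. After 5 days, nuclei were counted on 4× images. Relative viability is treated-well nuclei count divided by vehicle-well nuclei count, and values are medians of duplicate plates.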
# RAF265 + Palbociclib = compound: Cn1c(Nc2ccc(C(F)(F)F)cc2)nc2cc(Oc3ccnc(-c4ncc(C(F)(F)F)[nH]4)c3)ccc21 [RAF265] + CC(=O)c1c(C)c2cnc(Nc3ccc(N4CCNCC4)cn3)nc2n(C2CCCC2)c1=O [Palbociclib] (partner 0.5 µM)
# Summary of the method: as §1
# RAF265 + Alpelisib = compound: Cn1c(Nc2ccc(C(F)(F)F)cc2)nc2cc(Oc3ccnc(-c4ncc(C(F)(F)F)[nH]4)c3)ccc21 [RAF265] + Cc1nc(NC(=O)N2CCC[C@H]2C(N)=O)sc1-c1ccnc(C(C)(C)C(F)(F)F)c1 [Alpelisib] (partner 2 µM)
# Summary of the method: as §1
# RAF265 + Decitabine = compound: Cn1c(Nc2ccc(C(F)(F)F)cc2)nc2cc(Oc3ccnc(-c4ncc(C(F)(F)F)[nH]4)c3)ccc21 [RAF265] + Nc1ncn([C@H]2C[C@H](O)[C@@H](CO)O2)c(=O)n1 [Decitabine] (partner 2 µM)
# Summary of the method: as §1
cell line,measurement,setting,value
NCI-H647,relative viability,Doramapimod + Tozasertib; first compound 0.02 µM,0.317
same,relative viability,Doramapimod + Tozasertib; first compound 0.06325 µM,0.288
same,relative viability,Doramapimod + Tozasertib; first compound 0.2 µM,0.328
same,relative viability,Doramapimod + Tozasertib; first compound 0.6325 µM,0.24
same,relative viability,Doramapimod + Tozasertib; first compound 2 µM,0.327
same,relative viability,RAF265 + Palbociclib; first compound 0.01 µM,0.335
same,relative viability,RAF265 + Palbociclib; first compound 0.03162 µM,0.401
same,relative viability,RAF265 + Palbociclib; first compound 0.1 µM,0.196
same,relative viability,RAF265 + Palbociclib; first compound 0.3162 µM,0.228
same,relative viability,RAF265 + Palbociclib; first compound 1 µM,0.218
same,relative viability,RAF265 + Alpelisib; first compound 0.01 µM,0.923
same,relative viability,RAF265 + Alpelisib; first compound 0.03162 µM,0.933
same,relative viability,RAF265 + Alpelisib; first compound 0.1 µM,0.594
same,relative viability,RAF265 + Alpelisib; first compound 0.3162 µM,0.477
same,relative viability,RAF265 + Alpelisib; first compound 1 µM,0.585
same,relative viability,RAF265 + Decitabine; first compound 0.01 µM,0.394
same,relative viability,RAF265 + Decitabine; first compound 0.03162 µM,0.33
same,relative viability,RAF265 + Decitabine; first compound 0.1 µM,0.357
same,relative viability,RAF265 + Decitabine; first compound 0.3162 µM,0.266
same,relative viability,RAF265 + Decitabine; first compound 1 µM,0.262
NCI-H1755,relative viability,Doramapimod + Tozasertib; first compound 0.02 µM,0.581
same,relative viability,Doramapimod + Tozasertib; first compound 0.06325 µM,0.58
same,relative viability,Doramapimod + Tozasertib; first compound 0.2 µM,0.597
same,relative viability,Doramapimod + Tozasertib; first compound 0.6325 µM,0.611
same,relative viability,Doramapimod + Tozasertib; first compound 2 µM,0.469
same,relative viability,RAF265 + Palbociclib; first compound 0.01 µM,0.385
same,relative viability,RAF265 + Palbociclib; first compound 0.03162 µM,0.445
same,relative viability,RAF265 + Palbociclib; first compound 0.1 µM,0.462
same,relative viability,RAF265 + Palbociclib; first compound 0.3162 µM,0.414
same,relative viability,RAF265 + Palbociclib; first compound 1 µM,0.309
same,relative viability,RAF265 + Alpelisib; first compound 0.01 µM,0.966
same,relative viability,RAF265 + Alpelisib; first compound 0.03162 µM,0.864
same,relative viability,RAF265 + Alpelisib; first compound 0.1 µM,0.779
same,relative viability,RAF265 + Alpelisib; first compound 0.3162 µM,0.486
same,relative viability,RAF265 + Alpelisib; first compound 1 µM,0.408
same,relative viability,RAF265 + Decitabine; first compound 0.01 µM,0.693
same,relative viability,RAF265 + Decitabine; first compound 0.03162 µM,0.661
same,relative viability,RAF265 + Decitabine; first compound 0.1 µM,0.728
same,relative viability,RAF265 + Decitabine; first compound 0.3162 µM,0.723
same,relative viability,RAF265 + Decitabine; first compound 1 µM,0.642
EPLC-272H,relative viability,Doramapimod + Tozasertib; first compound 0.02 µM,0.319
same,relative viability,Doramapimod + Tozasertib; first compound 0.06325 µM,0.275
same,relative viability,Doramapimod + Tozasertib; first compound 0.2 µM,0.441
same,relative viability,Doramapimod + Tozasertib; first compound 0.6325 µM,0.29
same,relative viability,Doramapimod + Tozasertib; first compound 2 µM,0.246
same,relative viability,RAF265 + Palbociclib; first compound 0.01 µM,0.334
same,relative viability,RAF265 + Palbociclib; first compound 0.03162 µM,0.291
same,relative viability,RAF265 + Palbociclib; first compound 0.1 µM,0.352
same,relative viability,RAF265 + Palbociclib; first compound 0.3162 µM,0.287
same,relative viability,RAF265 + Palbociclib; first compound 1 µM,0.269
same,relative viability,RAF265 + Alpelisib; first compound 0.01 µM,0.847
same,relative viability,RAF265 + Alpelisib; first compound 0.03162 µM,0.792
same,relative viability,RAF265 + Alpelisib; first compound 0.1 µM,0.801
same,relative viability,RAF265 + Alpelisib; first compound 0.3162 µM,0.478
same,relative viability,RAF265 + Alpelisib; first compound 1 µM,0.367
same,relative viability,RAF265 + Decitabine; first compound 0.01 µM,0.409
same,relative viability,RAF265 + Decitabine; first compound 0.03162 µM,0.34
same,relative viability,RAF265 + Decitabine; first compound 0.1 µM,0.371
same,relative viability,RAF265 + Decitabine; first compound 0.3162 µM,0.243
same,relative viability,RAF265 + Decitabine; first compound 1 µM,0.231
NCI-H1437,relative viability,Doramapimod + Tozasertib; first compound 0.02 µM,0.416
same,relative viability,Doramapimod + Tozasertib; first compound 0.06325 µM,0.431
same,relative viability,Doramapimod + Tozasertib; first compound 0.2 µM,0.394
same,relative viability,Doramapimod + Tozasertib; first compound 0.6325 µM,0.404
same,relative viability,Doramapimod + Tozasertib; first compound 2 µM,0.401
same,relative viability,RAF265 + Palbociclib; first compound 0.01 µM,0.318
same,relative viability,RAF265 + Palbociclib; first compound 0.03162 µM,0.315
same,relative viability,RAF265 + Palbociclib; first compound 0.1 µM,0.305
same,relative viability,RAF265 + Palbociclib; first compound 0.3162 µM,0.366
same,relative viability,RAF265 + Palbociclib; first compound 1 µM,0.306
same,relative viability,RAF265 + Alpelisib; first compound 0.01 µM,0.956
same,relative viability,RAF265 + Alpelisib; first compound 0.03162 µM,1.02
same,relative viability,RAF265 + Alpelisib; first compound 0.1 µM,0.973
same,relative viability,RAF265 + Alpelisib; first compound 0.3162 µM,0.944
same,relative viability,RAF265 + Alpelisib; first compound 1 µM,0.778
same,relative viability,RAF265 + Decitabine; first compound 0.01 µM,0.613
same,relative viability,RAF265 + Decitabine; first compound 0.03162 µM,0.622
same,relative viability,RAF265 + Decitabine; first compound 0.1 µM,0.571
same,relative viability,RAF265 + Decitabine; first compound 0.3162 µM,0.661
same,relative viability,RAF265 + Decitabine; first compound 1 µM,0.574
EKVX,relative viability,Doramapimod + Tozasertib; first compound 0.02 µM,0.324
same,relative viability,Doramapimod + Tozasertib; first compound 0.06325 µM,0.385
same,relative viability,Doramapimod + Tozasertib; first compound 0.2 µM,0.43
same,relative viability,Doramapimod + Tozasertib; first compound 0.6325 µM,0.336
same,relative viability,Doramapimod + Tozasertib; first compound 2 µM,0.341
same,relative viability,RAF265 + Palbociclib; first compound 0.01 µM,0.429
same,relative viability,RAF265 + Palbociclib; first compound 0.03162 µM,0.405
same,relative viability,RAF265 + Palbociclib; first compound 0.1 µM,0.416
same,relative viability,RAF265 + Palbociclib; first compound 0.3162 µM,0.249
same,relative viability,RAF265 + Palbociclib; first compound 1 µM,0.276
same,relative viability,RAF265 + Alpelisib; first compound 0.01 µM,0.863
same,relative viability,RAF265 + Alpelisib; first compound 0.03162 µM,0.842
same,relative viability,RAF265 + Alpelisib; first compound 0.1 µM,0.944
same,relative viability,RAF265 + Alpelisib; first compound 0.3162 µM,0.516
same,relative viability,RAF265 + Alpelisib; first compound 1 µM,0.624
same,relative viability,RAF265 + Decitabine; first compound 0.01 µM,0.404
same,relative viability,RAF265 + Decitabine; first compound 0.03162 µM,0.318
same,relative viability,RAF265 + Decitabine; first compound 0.1 µM,0.39
same,relative viability,RAF265 + Decitabine; first compound 0.3162 µM,0.201
same,relative viability,RAF265 + Decitabine; first compound 1 µM,0.281
NCI-H1651,relative viability,Doramapimod + Tozasertib; first compound 0.02 µM,0.726
same,relative viability,Doramapimod + Tozasertib; first compound 0.06325 µM,0.703
same,relative viability,Doramapimod + Tozasertib; first compound 0.2 µM,0.75
same,relative viability,Doramapimod + Tozasertib; first compound 0.6325 µM,0.719
same,relative viability,Doramapimod + Tozasertib; first compound 2 µM,0.608
same,relative viability,RAF265 + Palbociclib; first compound 0.01 µM,0.508
same,relative viability,RAF265 + Palbociclib; first compound 0.03162 µM,0.517
same,relative viability,RAF265 + Palbociclib; first compound 0.1 µM,0.504
same,relative viability,RAF265 + Palbociclib; first compound 0.3162 µM,0.479
same,relative viability,RAF265 + Palbociclib; first compound 1 µM,0.47
same,relative viability,RAF265 + Alpelisib; first compound 0.01 µM,0.95
same,relative viability,RAF265 + Alpelisib; first compound 0.03162 µM,0.919
same,relative viability,RAF265 + Alpelisib; first compound 0.1 µM,1.03
same,relative viability,RAF265 + Alpelisib; first compound 0.3162 µM,0.734
same,relative viability,RAF265 + Alpelisib; first compound 1 µM,0.774
same,relative viability,RAF265 + Decitabine; first compound 0.01 µM,0.675
same,relative viability,RAF265 + Decitabine; first compound 0.03162 µM,0.632
same,relative viability,RAF265 + Decitabine; first compound 0.1 µM,0.424
same,relative viability,RAF265 + Decitabine; first compound 0.3162 µM,0.589
same,relative viability,RAF265 + Decitabine; first compound 1 µM,0.54
HCC-15,relative viability,Doramapimod + Tozasertib; first compound 0.02 µM,0.401
same,relative viability,Doramapimod + Tozasertib; first compound 0.06325 µM,0.343
same,relative viability,Doramapimod + Tozasertib; first compound 0.2 µM,0.414
same,relative viability,Doramapimod + Tozasertib; first compound 2 µM,0.309
same,relative viability,RAF265 + Palbociclib; first compound 0.01 µM,0.71
same,relative viability,RAF265 + Palbociclib; first compound 0.03162 µM,0.825
same,relative viability,RAF265 + Palbociclib; first compound 0.1 µM,0.672
same,relative viability,RAF265 + Palbociclib; first compound 0.3162 µM,0.537
same,relative viability,RAF265 + Palbociclib; first compound 1 µM,0.27
same,relative viability,RAF265 + Alpelisib; first compound 0.01 µM,0.949
same,relative viability,RAF265 + Alpelisib; first compound 0.03162 µM,0.776
same,relative viability,RAF265 + Alpelisib; first compound 0.1 µM,0.844
same,relative viability,RAF265 + Alpelisib; first compound 0.3162 µM,0.544
same,relative viability,RAF265 + Alpelisib; first compound 1 µM,0.439
same,relative viability,RAF265 + Decitabine; first compound 0.01 µM,0.714
same,relative viability,RAF265 + Decitabine; first compound 0.03162 µM,0.613
same,relative viability,RAF265 + Decitabine; first compound 0.1 µM,0.524
same,relative viability,RAF265 + Decitabine; first compound 0.3162 µM,0.545
same,relative viability,RAF265 + Decitabine; first compound 1 µM,0.42
LCLC-103H,relative viability,Doramapimod + Tozasertib; first compound 0.02 µM,0.431
same,relative viability,Doramapimod + Tozasertib; first compound 0.06325 µM,0.529
same,relative viability,Doramapimod + Tozasertib; first compound 0.2 µM,0.388
same,relative viability,Doramapimod + Tozasertib; first compound 0.6325 µM,0.544
same,relative viability,Doramapimod + Tozasertib; first compound 2 µM,0.432
same,relative viability,RAF265 + Palbociclib; first compound 0.01 µM,0.463
same,relative viability,RAF265 + Palbociclib; first compound 0.03162 µM,0.47
same,relative viability,RAF265 + Palbociclib; first compound 0.1 µM,0.496
same,relative viability,RAF265 + Palbociclib; first compound 0.3162 µM,0.404
same,relative viability,RAF265 + Palbociclib; first compound 1 µM,0.322
same,relative viability,RAF265 + Alpelisib; first compound 0.01 µM,0.862
same,relative viability,RAF265 + Alpelisib; first compound 0.03162 µM,1.02
same,relative viability,RAF265 + Alpelisib; first compound 0.1 µM,0.854
same,relative viability,RAF265 + Alpelisib; first compound 0.3162 µM,0.745
same,relative viability,RAF265 + Alpelisib; first compound 1 µM,0.461
same,relative viability,RAF265 + Decitabine; first compound 0.01 µM,0.767
same,relative viability,RAF265 + Decitabine; first compound 0.03162 µM,0.714
same,relative viability,RAF265 + Decitabine; first compound 0.1 µM,0.682
same,relative viability,RAF265 + Decitabine; first compound 0.3162 µM,0.695
same,relative viability,RAF265 + Decitabine; first compound 1 µM,0.367

# Source: the supplement of paper PMC10307832
